From US9326513B2, “Fungicidal compositions” (Syngenta Participations AG, priority 2011, dated 2016)

Legend:
Type in all cases: in vivo
Details in all cases: foliar, compared to untreated control leaf disks, read-out: disease control
[1] = tested on: Puccinia recondita f. sp. tritici; test: Puccinia recondita f. sp. tritici / wheat / leaf disc preventative (brown rust)
Text: Puccinia recondita f. sp. tritici/Wheat/Leaf Disc Preventative (Brown Rust) Wheat leaf segments cv. Kanzler were placed on agar in multiwell plates (24-well format) and sprayed with the formulated test compound diluted in water. The leaf disks were inoculated with a spore suspension of the fungus 1 day after application.

[2] = tested on: Puccinia recondita f. sp. tritici; test: Puccinia recondita f. sp. tritici / wheat / leaf disc curative (brown rust)
Protocol: Puccinia recondita f. sp. tritici/Wheat/Leaf Disc Curative (Brown Rust) Wheat leaf segments cv. Kanzler are placed on agar in multiwell plates (24-well format). The leaf segments are inoculated with a spore suspension of the fungus. Plates were stored in darkness at 19° C. and 75% rh. The formulated test compound diluted in water was applied 1 day after inoculation.

[3] = tested on: Blumeria graminis f. sp. tritici (Erysiphe graminis f. sp. tritici); test: Blumeria graminis f. sp. tritici / wheat / leaf disc preventative (powdery mildew on wheat)
Protocol: Blumeria graminis f. sp. tritici (Erysiphe graminis f. sp. tritici)/Wheat/Leaf Disc Preventative (Powdery Mildew on Wheat)
Wheat leaf segments cv. Kanzler were placed on agar in a multiwell plate (24-well format) and sprayed with the formulated test compound diluted in water. The leaf disks were inoculated by shaking powdery mildew infected plants above the test plates 1 day after application. The inoculated leaf disks were incubated at 20° C. and 60% rh under a light regime of 24 h darkness followed by 12 h light/12 h darkness in a climate chamber and the activity of a compound was assessed as percent disease control compared to untreated when an appropriate level of disease damage appears on untreated check leaf segments (6-8 days after application).
The following compounds gave at 200 ppm give at least 50% disease control in this test when compared to untreated control leaf disks under the same conditions, which show extensive disease development: […]

Measured: pest or weed control at 200 ppm

CCN(C)/C=N/c1cc(-c2ccccc2)c(OC(C)c2cc(F)cc(F)c2)nc1C (stereo not drawn) [Q.263]
≥ 50%: all assays above

CCN(C)/C=N/c1cc(-c2ccsc2)c(OC(C)c2cc(F)cc(F)c2)nc1C (stereo not drawn) [Q.265]
≥ 50%: all assays above

CCN(C)/C=N/c1cc(Br)c(O[C@H]2CC[C@H](c3ccccc3)CC2)nc1C [Q.270]
≥ 50%: all assays above

CCN(C)/C=N/c1cc(Br)c(OCC[Si](C)(C)C)nc1C [Q.271]
≥ 50%: all assays above

CCN(C)/C=N/c1cc(Br)c(OC(C)CC[Si](C)(C)C)nc1C (stereo not drawn) [Q.273]
≥ 50%: all assays above

CCN(C)/C=N/c1cc(Br)c(OCC[Si](CC)(CC)CC)nc1C [Q.274]
≥ 50%: all assays above

C=Cc1ccccc1C(C)Oc1nc(C)c(/N=C/N(C)CC)cc1Br (stereo not drawn) [Q.276]
≥ 50%: all assays above

CCN(C)/C=N/c1cc(Br)c(OC2C=CC(=O)CC2)nc1C (stereo not drawn) [Q.281]
≥ 50%: all assays above

CCc1ccccc1C(C)Oc1nc(C)c(/N=C/N(C)CC)cc1Br (stereo not drawn) [Q.283]
≥ 50%: all assays above

CCCc1ccccc1C(C)Oc1nc(C)c(/N=C/N(C)CC)cc1Br (stereo not drawn) [Q.287]
≥ 50%: all assays above

CCN(C)/C=N/c1cc(Br)c(OC(C)c2ccccc2C(F)F)nc1C (stereo not drawn) [Q.290]
≥ 50%: all assays above

CCN(C)/C=N/c1cc(Br)c(OCc2ccccc2-c2ccccc2)nc1C [Q.294]
≥ 50%: all assays above

CCN(C)/C=N/c1ccc(OCc2cc(C)cc(C)c2)nc1C [Q.296]
≥ 50%: all assays above

Cc1cc(C)cc(COc2ccc(/N=C/N(C)C(C)C)c(C)n2)c1 [Q.297]
≥ 50%: all assays above

CCN(C)/C=N/c1cc(Br)c(OC(C)c2ccccc2Br)nc1C (stereo not drawn) [Q.303]
≥ 50%: all assays above

CCN(C)/C=N/c1cc(Br)c(OC(C)c2ccccc2C#N)nc1C (stereo not drawn) [Q.305]
≥ 50%: all assays above

CCN(C)/C=N/c1cc(Br)c(OCc2ccccc2C(C)C)nc1C [Q.306]
≥ 50%: all assays above

CCN(C)/C=N/c1cc(Br)c(OC(C)c2ccccc2C(C)C)nc1C (stereo not drawn) [Q.307]
≥ 50%: all assays above

CCN(C)/C=N/c1cc(Br)c(OCc2ccccc2CCc2ccccc2)nc1C [Q.309]
≥ 50%: all assays above

CCN(C)/C=N/c1cc(Br)c(OCc2ccccc2C#Cc2ccccc2)nc1C [Q.310]
≥ 50%: all assays above

CCN(C)/C=N/c1cc(Br)c(OCc2cc(F)c(F)c(F)c2)nc1C [Q.317]
≥ 50%: all assays above

CCN(C)/C=N/c1cc(Br)c(OC(C)c2cc(F)c(F)c(F)c2)nc1C (stereo not drawn) [Q.318]
≥ 50%: all assays above

CCN(C)/C=N/c1cc(Br)c(OCc2ccc3c(c2)CCCC3)nc1C [Q.319]
≥ 50%: all assays above

CCN(C)/C=N/c1cc(Br)c(OC(C)c2ccccc2C)nc1C (stereo not drawn) [Q.321]
≥ 50%: all assays above

CCN(C)/C=N/c1cc(Br)c(OCc2ccc(F)c(C)c2)nc1C [Q.323]
≥ 50%: all assays above

CCC(Oc1nc(C)c(/N=C/N(C)CC)cc1Br)c1cc(F)cc(F)c1 (stereo not drawn) [Q.327]
≥ 50%: all assays above

CCN(C)/C=N/c1cc(Br)c(OCc2ccccc2OC)nc1C [Q.330]
≥ 50%: all assays above

C/C=C/C(C)Oc1nc(C)c(/N=C/N(C)CC)cc1Br (stereo not drawn) [Q.331]
≥ 50%: all assays above

CSc1ccccc1COc1ccc(/N=C/N(C)C(C)C)c(C)n1 [Q.339]
≥ 50%: all assays above

CCN(C)/C=N/c1ccc(OC2CCCCC2C)nc1C (stereo not drawn) [Q.341]
≥ 50%: all assays above

Cc1nc(OC2CCCCC2C)ccc1/N=C/N(C)C(C)C (stereo not drawn) [Q.342]
≥ 50%: all assays above

CCCc1ccccc1COc1nc(C)c(/N=C/N(C)CC)cc1Br [Q.345]
≥ 50%: all assays above

CCC(Oc1ccc(/N=C/N(C)CC)c(C)n1)c1ccccc1 (stereo not drawn) [Q.347]
≥ 50%: all assays above

CCN(C)/C=N/c1ccc(OCCc2ccccc2C)nc1C [Q.350]
≥ 50%: all assays above

CCN(C)/C=N/c1cc(Br)c(OCc2ccc3cccnc3c2)nc1C [Q.351]
≥ 50%: all assays above

CCN(C)/C=N/c1cc(Br)c(OCCCC2CC2)nc1C [Q.356]
≥ 50%: all assays above

CCC(Oc1ccc(/N=C/N(C)CC)c(C)n1)c1cc(C)cc(C)c1 (stereo not drawn) [Q.359]
≥ 50%: all assays above

Cc1cc(C)cc(C(C)Oc2ccc(/N=C/N(C)C(C)C)c(C)n2)c1 (stereo not drawn) [Q.360]
≥ 50%: all assays above

CCN(C)/C=N/c1ccc(OCc2ccccc2OC)nc1C [Q.367]
≥ 50%: all assays above

CCN(C)/C=N/c1ccc(OC(C)Cc2ccccc2)nc1C (stereo not drawn) [Q.368]
≥ 50%: all assays above

CCN(C)/C=N/c1cc(Br)c(OC2Cc3cc(C#N)c(OC)cc3C2)nc1C (stereo not drawn) [Q.369]
≥ 50%: all assays above
